# Laboratory results from patent publication US20250179017A1 (GUANGDONG NEWOPP BIOPHARMACEUTICALS CO., LTD., priority 2022, published 2025).
# Target: T1, human EP2 (PTGER2) (Homo sapiens, UniProt P43116)
# T1 construct: Cayman Chemical (Human EP2 Reporter Assay Kit)
# Assay: EP2 antagonist assay (HEK-293 CNG membrane potential cAMP assay / 293T SEAP reporter assay, PGE2-stimulated)
# Format: cell-based
# Details: EP2 antagonist activity; concentration for 50% inhibition of signal compared to DMSO
# In short: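 Two formats. In a CRE-SEAP reporter assay, reverse-transfected 293T cells received compound with PGE2 (13 nM final) for 6-8 h, then luminescence was read. In the ACTOne CNG format, HEK-293 cells were preincubated with compound for 15 min at RT, stimulated with 5 nM PGE2 for 30 min, and read by membrane-potential dye fluorescence. IC50 was taken versus DMSO.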
# T1 sequence (P43116 whole entry): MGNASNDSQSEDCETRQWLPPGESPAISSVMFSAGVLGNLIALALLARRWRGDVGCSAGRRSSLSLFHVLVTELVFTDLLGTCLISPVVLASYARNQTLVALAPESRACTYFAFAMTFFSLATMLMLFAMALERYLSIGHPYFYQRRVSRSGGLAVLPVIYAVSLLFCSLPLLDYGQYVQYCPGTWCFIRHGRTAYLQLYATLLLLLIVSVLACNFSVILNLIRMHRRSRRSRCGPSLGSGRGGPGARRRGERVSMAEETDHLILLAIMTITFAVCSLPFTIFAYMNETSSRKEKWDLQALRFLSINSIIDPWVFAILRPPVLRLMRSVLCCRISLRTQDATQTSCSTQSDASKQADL
row,Structure (SMILES),IC50 [nM]
1,"O=C(O)c1ccc(CNC(=O)c2cc(-c3ccccc3)cc3ccn(Cc4cccc(C(F)(F)F)c4)c23)cc1 [Example 122, 4-((5-phenyl-1-(3-(trifluoromethyl)benzyl)-1H-indole-7-carboxamido)methyl)benzoic acid]",< 100
2,"O=C(O)c1ccc(CNC(=O)c2cc(-c3cccnc3)cc3ccn(Cc4cccc(C(F)(F)F)c4)c23)cc1 [Example 123, 4-((5-(pyridin-3-yl)-1-(3-(trifluoromethyl)benzyl)-1H-indole-7-carboxamido)methyl)benzoic acid]",100 to 1000
3,"O=C(O)c1ccc(CNC(=O)c2cc(-c3cc(F)cc(F)c3)cc3ccn(Cc4cccc(C(F)(F)F)c4)c23)cc1 [Example 125, 4-((5-(3,5-difluorophenyl)-1-(3-(trifluoromethyl)benzyl)-1H-indole-7-carboxamido)methyl)benzoic acid]",< 100
4,"N#Cc1cccc(-c2cc(C(=O)NCc3ccc(C(=O)O)cc3)c3c(ccn3Cc3cccc(C(F)(F)F)c3)c2)c1 [Example 126, 4-((5-(3-cyanophenyl)-1-(3-(trifluoromethyl)benzyl)-1H-indole-7-carboxamido)methyl)benzoic acid]",< 100
5,"C[C@H](NC(=O)c1cc(-c2cccc(C#N)c2)cc2ccn(Cc3cccc(C(F)(F)F)c3)c12)c1ccc(C(=O)O)cc1 [Example 127, (S)-4-(1-(5-(3-cyanophenyl)-1-(3-(trifluoromethyl)benzyl)-1H-indole-7-carboxamido)ethyl)benzoic acid]",< 100
6,"C[C@H](NC(=O)c1cc(-c2cccnc2)cc2ccn(Cc3cccc(C(F)(F)F)c3)c12)c1ccc(C(=O)O)cc1 [Example 128, (S)-4-(1-(5-(pyridin-3-yl)-1-(3-(trifluoromethyl)benzyl)-1H-indole-7-carboxamido)ethyl)benzoic acid]",< 100
7,"C[C@H](NC(=O)c1cc(-c2cc(F)cc(F)c2)cc2ccn(Cc3cccc(C(F)(F)F)c3)c12)c1ccc(C(=O)O)cc1 [Example 130, (S)-4-(1-(5-(3,5-difluorophenyl)-1-(3-(trifluoromethyl)benzyl)-1H-indole-7-carboxamido)ethyl)benzoic acid]",< 100
8,"O=C(O)c1ccc(C2(NC(=O)c3cc(-c4ccccc4)cc4ccn(Cc5cccc(C(F)(F)F)c5)c34)CC2)cc1 [Example 131, 4-(1-(5-phenyl-1-(3-(trifluoromethyl)benzyl)-1H-indole-7-carboxamido)cyclopropyl)benzoic acid]",100 to 1000
9,"O=C(O)c1ccc(C2(NC(=O)c3cc(-c4cc(F)cc(F)c4)cc4ccn(Cc5cccc(C(F)(F)F)c5)c34)CC2)cc1 [Example 132, 4-(1-(5-(3,5-difluorophenyl)-1-(3-(trifluoromethyl)benzyl)-1H-indole-7-carboxamido)cyclopropyl)benzoic acid]",100 to 1000
10,"N#Cc1cccc(-c2cc(C(=O)NC3(c4ccc(C(=O)O)cc4)CC3)c3c(ccn3Cc3cccc(C(F)(F)F)c3)c2)c1 [Example 133, 4-(1-(5-(3-cyanophenyl)-1-(3-(trifluoromethyl)benzyl)-1H-indole-7-carboxamido)cyclopropyl)benzoic acid]",100 to 1000
11,"O=C(O)c1ccc(CNC(=O)c2cc(-c3ccc(F)cc3)cc3cnn(Cc4cccc(C(F)(F)F)c4)c23)cc1 [Example 138, 4-((5-(4-fluorophenyl)-1-(3-(trifluoromethyl)benzyl)-1H-indazole-7-carboxamido)methyl)benzoic acid]",< 100
12,"O=C(O)c1ccc(CNC(=O)c2cc(-c3cc(F)cc(F)c3)cc3cnn(Cc4cccc(C(F)(F)F)c4)c23)cc1 [Example 139, 4-((5-(3,5-difluorophenyl)-1-(3-(trifluoromethyl)benzyl)-1H-indazole-7-carboxamido)methyl)benzoic acid]",< 100
13,"O=C(O)c1ccc(C2(NC(=O)c3cc(-c4ccccc4)cc4cnn(Cc5cccc(C(F)(F)F)c5)c34)CC2)cc1 [Example 140, 4-(1-(5-phenyl-1-(3-(trifluoromethyl)benzyl)-1H-indazole-7-carboxamido)cyclopropyl)benzoic acid]",100 to 1000
14,"O=C(O)c1ccc(CNC(=O)c2cc(-c3ccc(F)cc3)cc3ccn(Cc4ccc5ccccc5n4)c23)cc1 [Example 142, 4-((5-(4-fluorophenyl)-1-(quinolin-2-ylmethyl)-1H-indole-7-carboxamido)methyl)benzoic acid]",< 100
15,"C[C@H](NC(=O)c1cc(-c2ccccc2)cc2ccn(Cc3ccc4ccccc4n3)c12)c1ccc(C(=O)O)cc1 [Example 143, (S)-4-(1-(5-phenyl-1-(quinolin-2-ylmethyl)-1H-indole-7-carboxamido)ethyl)benzoic acid]",< 100
16,"C[C@H](NC(=O)c1cc(-c2ccc(F)cc2)cc2ccn(Cc3ccc4ccccc4n3)c12)c1ccc(C(=O)O)cc1 [Example 144, (S)-4-(1-(5-(4-fluorophenyl)-1-(quinolin-2-ylmethyl)-1H-indole-7-carboxamido)ethyl)benzoic acid]",< 100
17,"O=C(O)c1ccc(CNC(=O)c2cc(-c3ccccc3)cc3ccn(Cc4cccc(-c5ccccc5)c4)c23)cc1 [Example 145, ((1-([1,1′-biphenyl]-3-ylmethyl)-5-phenyl-1H-indole-7-carboxamido)methyl)benzoic acid]",< 100

row,Structure (SMILES),IC50 [nM]
1,"COc1cccc(Cn2ccc3cc(-c4ccccc4)cc(C(=O)NCc4ccc(C(=O)O)cc4)c32)c1 [Example 146, 4-((1-(3-methoxybenzyl)-5-phenyl-1H-indole-7-carboxamido)methyl)benzoic acid]",< 100
2,"O=C(O)c1ccc(CNC(=O)c2cc(-c3ccc(F)cc3)cc3ccn(Cc4ccc(-c5ccccc5)cc4)c23)cc1 [Example 148, 4-((1-([1,1′-biphenyl]-4-ylmethyl)-5-(4-fluorophenyl)-1H-indole-7-carboxamido)methyl)benzoic acid]",< 100
3,"O=C(O)c1ccc(CNC(=O)c2ccc(Nc3ccccc3)c3ccn(Cc4ccc5ccccc5n4)c23)cc1 [Example 153, 4-((4-(phenylamino)-1-(quinolin-2-ylmethyl)-1H-indole-7-carboxamido)methyl)benzoic acid]",< 100
4,"COc1cccc(Cn2ccc3c(Nc4ccccc4)ccc(C(=O)NCc4ccc(C(=O)O)cc4)c32)c1 [Example 155, 4-((1-(3-methoxybenzyl)-4-(phenylamino)-1H-indole-7-carboxamido)methyl)benzoic acid]",< 100
5,"O=C(O)c1ccc(CNC(=O)c2cc(-c3cc(F)cc(F)c3)cc3cnn(Cc4ccc5ccccc5c4)c23)cc1 [Example 157, 4-((5-(3,5-difluorophenyl)-1-(naphthalen-2-ylmethyl)-1H-indazole-7-carboxamido)methyl)benzoic acid]",< 100
6,"COc1cccc(Cn2ccc3c(Nc4ccccc4)ccc(C(=O)N[C@@H](C)c4ccc(C(=O)O)cc4)c32)c1 [Example 158, (S)-4-(1-(1-(3-methoxybenzyl)-4-(phenylamino)-1H-indole-7-carboxamido)ethyl)benzoic acid]",< 100
7,"O=C(O)c1ccc(CNC(=O)c2cc(-c3ccccc3)cc3ccn(Cc4ccc5ccccc5c4)c23)cc1 [Example 159, 4-((1-(naphthalen-2-ylmethyl)-5-phenyl-1H-indole-7-carboxamido)methyl)benzoic acid]",< 100
8,"O=C(O)c1ccc(CNC(=O)c2cc(-c3ccc(F)cc3)cc3ccn(Cc4ccc5ccccc5c4)c23)cc1 [Example 160, 4-((5-(4-fluorophenyl)-1-(naphthalen-2-ylmethyl)-1H-indole-7-carboxamido)methyl)benzoic acid]",< 100
9,"O=C(O)c1ccc(CNC(=O)c2cc(-c3cc(F)cc(F)c3)cc3ccn(Cc4ccc5ccccc5c4)c23)cc1 [Example 161, 4-((5-(3,5-difluorophenyl)-1-(naphthalen-2-ylmethyl)-1H-indole-7-carboxamido)methyl)benzoic acid]",< 100
10,"C[C@H](NC(=O)c1cc(-c2ccccc2)cc2ccn(Cc3ccc4ccccc4c3)c12)c1ccc(C(=O)O)cc1 [Example 162, (S)-4-(1-(1-(naphthalen-2-ylmethyl)-5-phenyl-1H-indole-7-carboxamido)ethyl)benzoic acid]",< 100
11,"C[C@H](NC(=O)c1cc(-c2ccc(F)cc2)cc2ccn(Cc3ccc4ccccc4c3)c12)c1ccc(C(=O)O)cc1 [Example 163, (S)-4-(1-(5-(4-fluorophenyl)-1-(naphthalen-2-ylmethyl)-1H-indole-7-carboxamido)ethyl)benzoic acid]",< 100
12,"C[C@H](NC(=O)c1cc(-c2cc(F)cc(F)c2)cc2ccn(Cc3ccc4ccccc4c3)c12)c1ccc(C(=O)O)cc1 [Example 164, (S)-4-(1-(5-(3,5-difluorophenyl)-1-(naphthalen-2-ylmethyl)-1H-indole-7-carboxamido)ethyl)benzoic acid]",< 100
13,"C[C@H](NC(=O)c1cc(-c2ccccc2)cc2cnn(Cc3ccc4ccccc4c3)c12)c1ccc(C(=O)O)cc1 [Example 167, (S)-4-(1-(1-(naphthalen-2-ylmethyl)-5-phenyl-1H-indazole-7-carboxamido)ethyl)benzoic acid]",< 100
14,"C[C@H](NC(=O)c1cc(-c2ccccc2)cc2cnn(Cc3cccc(Cl)c3)c12)c1ccc(C(=O)O)cc1 [Example 170, (S)-4-(1-(1-(3-chlorobenzyl)-5-phenyl-1H-indazole-7-carboxamido)ethyl)benzoic acid]",< 100
15,"O=C(O)c1ccc(CNC(=O)c2cc(-c3ccccc3)cc3ncn(Cc4ccc(C(F)(F)F)cc4)c23)cc1 [Example 171, 4-((5-phenyl-1-(4-(trifluoromethyl)benzyl)-1H-benzo[d]imidazole-7-carboxamido)-methyl)benzoic acid]",< 100
16,"O=C(O)c1ccc(CNC(=O)c2cc(-c3ccc(F)cc3)cc3ncn(Cc4ccc(C(F)(F)F)cc4)c23)cc1 [Example 172, 4-((5-(4-fluorophenyl)-1-(4-(trifluoromethyl)benzyl)-1H-benzo[d]imidazole-7-carboxamido)methyl)benzoic acid]",< 100
